Reference: article PMC11971462, “Generation and validation of a novel multitarget small molecule in glioblastoma” (Cell Death & Disease, 2025)

Tested on: GNS166 cells
Test: Label-free proteomics differential expression
Assay type: cell-based, human
Procedure: Proteomic studies were performed by the Proteomics Facility of the CIC bioGUNE by label-free relative quantification on nLC MS/MS. […] In both approaches, the top 20 enriched terms were plotted and the pathways were clustered using divisive hierarchical clustering based on pairwise Jaccard distances.

SMILES: C#CCN(Cc1cc2cc(OCCCN3CCCCC3)ccc2n1S(=O)(=O)c1ccccc1)C(=O)CCCCCCC(=O)NO [DDI]
- LogFC CAF1B_HUMAN (protein Q13112 GN=CHAF1B): -1.512
- LogFC STK3_HUMAN (protein Q13188 GN=STK3): 0.6701
- Direction MD2L1_HUMAN (protein Q13257): Down
- LogFC MD2L1_HUMAN (protein Q13257): -1.113
- LogFC PABP4_HUMAN (protein Q13310 GN=PABPC4): -0.5988
- Direction MTA1_HUMAN (protein Q13330): Down
- LogFC MTA1_HUMAN (protein Q13330): -1.705
- Direction 2A5G_HUMAN (protein Q13362): Down
- LogFC 2A5G_HUMAN (protein Q13362): -1.224
- Direction SQSTM_HUMAN (protein Q13501): Down
- LogFC SQSTM_HUMAN (protein Q13501): -1.0987
- LogFC TBB3_HUMAN (protein Q13509 GN=TUBB3): 0.7942
- LogFC PKD2_HUMAN (protein Q13563 GN=PKD2): -0.7081
- LogFC TRA2A_HUMAN (protein Q13595 GN=TRA2A): -0.7095
- LogFC TBB2A_HUMAN (protein Q13885 GN=TUBB2A): 0.9316
- LogFC IDI1_HUMAN (protein Q13907 GN=IDI1): 0.7277
- Direction CKAP5_HUMAN (protein Q14008): Down
- LogFC CKAP5_HUMAN (protein Q14008): -0.6393
- Direction PDE1C_HUMAN (protein Q14123): Down
- LogFC PDE1C_HUMAN (protein Q14123): -1.117
- Direction EIF3A_HUMAN (protein Q14152): Down
- LogFC EIF3A_HUMAN (protein Q14152): -0.389
- Direction UBP2L_HUMAN (protein Q14157): Down
- LogFC UBP2L_HUMAN (protein Q14157): -0.8648
- LogFC TTL12_HUMAN (protein Q14166 GN=TTLL12): 0.5228
- Direction DOCK1_HUMAN (protein Q14185): Down
- LogFC DOCK1_HUMAN (protein Q14185): -1.615
- Direction DYHC1_HUMAN (protein Q14204): Down
- LogFC DYHC1_HUMAN (protein Q14204): -0.3165
- Direction NUCG_HUMAN (protein Q14249): Down
- LogFC NUCG_HUMAN (protein Q14249): -2.036
- Direction FLOT2_HUMAN (protein Q14254): Down
- LogFC FLOT2_HUMAN (protein Q14254): -1.186
- Direction GAS6_HUMAN (protein Q14393): Down
- LogFC GAS6_HUMAN (protein Q14393): -2.504
- LogFC PLSI_HUMAN (protein Q14651 GN=PLS1): 1.442
- Direction SMC1A_HUMAN (protein Q14683): Down
- LogFC SMC1A_HUMAN (protein Q14683): -0.5055
- LogFC LPIN1_HUMAN (protein Q14693 GN=LPIN1): 0.9551
- Direction UBP10_HUMAN (protein Q14694): Down
- LogFC UBP10_HUMAN (protein Q14694): -0.9311
- Direction KIF22_HUMAN (protein Q14807): Down
- LogFC KIF22_HUMAN (protein Q14807): -3.469
- LogFC CHD4_HUMAN (protein Q14839 GN=CHD4): -0.985
- Direction IMB1_HUMAN (protein Q14974): Down
- LogFC IMB1_HUMAN (protein Q14974): -0.6185
- Direction CND2_HUMAN (protein Q15003): Down
- LogFC CND2_HUMAN (protein Q15003): -1.758
- LogFC SART3_HUMAN (protein Q15020 GN=SART3): -0.5999
- Direction CND1_HUMAN (protein Q15021): Down
- LogFC CND1_HUMAN (protein Q15021): -2.0518
- Direction SNX17_HUMAN (protein Q15036): Down
- LogFC SNX17_HUMAN (protein Q15036): -1.453
- Direction SYK_HUMAN (protein Q15046): Down
- LogFC SYK_HUMAN (protein Q15046): -0.4877
- Direction OXA1L_HUMAN (protein Q15070): Down
- LogFC OXA1L_HUMAN (protein Q15070): -1.062
- LogFC PMVK_HUMAN (protein Q15126 GN=PMVK): 1.337
- Direction PLEC_HUMAN (protein Q15149): Down
- LogFC PLEC_HUMAN (protein Q15149): -0.7
- LogFC NECT1_HUMAN (protein Q15223 GN=NECTIN1): -1.589
- Direction LRC41_HUMAN (protein Q15345): Down
- LogFC LRC41_HUMAN (protein Q15345): -1.0607
- LogFC KS6A1_HUMAN (protein Q15418 GN=RPS6KA1): 1.988
- LogFC PP1R7_HUMAN (protein Q15435 GN=PPP1R7): 0.5315
- LogFC MARE2_HUMAN (protein Q15555 GN=MAPRE2): 3.286
- LogFC CIP4_HUMAN (protein Q15642 GN=TRIP10): 1.0065
- Direction PCH2_HUMAN (protein Q15645): Down
- LogFC PCH2_HUMAN (protein Q15645): -0.9654
- Direction MSMO1_HUMAN (protein Q15800): Down
- LogFC MSMO1_HUMAN (protein Q15800): -0.8085
- LogFC STXB2_HUMAN (protein Q15833 GN=STXBP2): 0.5821
- Direction PKN2_HUMAN (protein Q16513): Down
- LogFC PKN2_HUMAN (protein Q16513): -0.7145
- Direction DDB1_HUMAN (protein Q16531): Down
- LogFC DDB1_HUMAN (protein Q16531): -0.3715
- LogFC DPYL2_HUMAN (protein Q16555 GN=DPYSL2): 0.9356
- LogFC UBE2S_HUMAN (protein Q16763 GN=UBE2S): -1.229
- LogFC CP51A_HUMAN (protein Q16850 GN=CYP51A1): -0.6587
- LogFC CGT_HUMAN (protein Q16880 GN=UGT8): 1.956
- LogFC TRXR1_HUMAN (protein Q16881 GN=TXNRD1): 0.6582
- Direction NICA_HUMAN (protein Q92542): Down
- LogFC NICA_HUMAN (protein Q92542): -1.398
- Direction TM9S4_HUMAN (protein Q92544): Down
- LogFC TM9S4_HUMAN (protein Q92544): -1.2661
- LogFC TBCD5_HUMAN (protein Q92609 GN=TBC1D5): -0.4214
- LogFC NU205_HUMAN (protein Q92621 GN=NUP205): -0.751
- Direction PXDN_HUMAN (protein Q92626): Down
- LogFC PXDN_HUMAN (protein Q92626): -0.8349
- Direction AP2C_HUMAN (protein Q92754): Down
- LogFC AP2C_HUMAN (protein Q92754): -1.895
- Direction SYMPK_HUMAN (protein Q92797): Down
- LogFC SYMPK_HUMAN (protein Q92797): -0.8433
- LogFC KIFA3_HUMAN (protein Q92845 GN=KIFAP3): 1.431
- Direction ARHG1_HUMAN (protein Q92888): Down
- LogFC ARHG1_HUMAN (protein Q92888): -0.7775
- Direction ARHG2_HUMAN (protein Q92974): Down
- LogFC ARHG2_HUMAN (protein Q92974): -0.6456
- LogFC USP9X_HUMAN (protein Q93008 GN=USP9X): 0.7813
- Direction CUL5_HUMAN (protein Q93034): Down
- LogFC CUL5_HUMAN (protein Q93034): -0.617
- LogFC VPP1_HUMAN (protein Q93050 GN=ATP6V0A1): 1.447
- Direction MED12_HUMAN (protein Q93074): Down
- LogFC MED12_HUMAN (protein Q93074): -2.0643
- Direction KPBB_HUMAN (protein Q93100): Down
- LogFC KPBB_HUMAN (protein Q93100): -2.118
- Direction SEC62_HUMAN (protein Q99442): Down
- LogFC SEC62_HUMAN (protein Q99442): -2.138
- LogFC VAT1_HUMAN (protein Q99536 GN=VAT1): 1.276
- Direction NUP88_HUMAN (protein Q99567): Down
- LogFC NUP88_HUMAN (protein Q99567): -0.8011
- LogFC NEUS_HUMAN (protein Q99574 GN=SERPINI1): 4.964
- LogFC DNJC7_HUMAN (protein Q99615 GN=DNAJC7): -0.8769
- Direction MGST2_HUMAN (protein Q99735): Down
- LogFC MGST2_HUMAN (protein Q99735): -1.016
